Experiments:
[1] = biological target: T1, Transcriptional regulator Kaiso (Homo sapiens) (UniProt Q86T24); conditions: OCI-Ly1, Compound concentration 1.0 uM
T1 sequence (whole entry): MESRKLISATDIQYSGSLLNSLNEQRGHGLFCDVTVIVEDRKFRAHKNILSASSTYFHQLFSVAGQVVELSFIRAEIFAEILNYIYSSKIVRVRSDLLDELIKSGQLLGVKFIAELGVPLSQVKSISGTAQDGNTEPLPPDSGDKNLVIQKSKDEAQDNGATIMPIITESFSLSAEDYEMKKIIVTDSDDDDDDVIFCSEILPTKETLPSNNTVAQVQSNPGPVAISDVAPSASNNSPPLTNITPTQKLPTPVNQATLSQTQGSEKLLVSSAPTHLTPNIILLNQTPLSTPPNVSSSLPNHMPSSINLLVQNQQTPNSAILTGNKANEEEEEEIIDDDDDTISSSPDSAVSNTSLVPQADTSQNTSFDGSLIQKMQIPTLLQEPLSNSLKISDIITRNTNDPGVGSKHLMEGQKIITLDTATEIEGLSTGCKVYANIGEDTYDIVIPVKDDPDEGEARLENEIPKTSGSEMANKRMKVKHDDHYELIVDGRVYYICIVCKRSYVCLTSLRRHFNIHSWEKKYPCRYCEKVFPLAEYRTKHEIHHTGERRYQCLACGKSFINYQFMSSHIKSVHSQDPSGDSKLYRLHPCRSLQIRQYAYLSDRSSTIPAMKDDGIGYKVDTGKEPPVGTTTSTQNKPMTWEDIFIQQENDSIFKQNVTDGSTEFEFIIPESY

[2] = biological target: Phosphorylase b kinase gamma catalytic chain, liver/testis isoform (Homo sapiens) (UniProt P15735); test: PHKG2 SGC Tm panel (DSF); conditions: Compound concentration 20.0 uM
[3] = biological target: MAP/microtubule affinity-regulating kinase 3 (Homo sapiens) (UniProt P27448); test: MARK3 SGC Tm panel (DSF); conditions: Compound concentration 20.0 uM
[4] = biological target: 5-hydroxytryptamine receptor 2C (Homo sapiens) (UniProt P28335); conditions: Compound concentration 10.0 uM
Chain of 5-hydroxytryptamine receptor 2C (Homo sapiens) (P28335 whole entry): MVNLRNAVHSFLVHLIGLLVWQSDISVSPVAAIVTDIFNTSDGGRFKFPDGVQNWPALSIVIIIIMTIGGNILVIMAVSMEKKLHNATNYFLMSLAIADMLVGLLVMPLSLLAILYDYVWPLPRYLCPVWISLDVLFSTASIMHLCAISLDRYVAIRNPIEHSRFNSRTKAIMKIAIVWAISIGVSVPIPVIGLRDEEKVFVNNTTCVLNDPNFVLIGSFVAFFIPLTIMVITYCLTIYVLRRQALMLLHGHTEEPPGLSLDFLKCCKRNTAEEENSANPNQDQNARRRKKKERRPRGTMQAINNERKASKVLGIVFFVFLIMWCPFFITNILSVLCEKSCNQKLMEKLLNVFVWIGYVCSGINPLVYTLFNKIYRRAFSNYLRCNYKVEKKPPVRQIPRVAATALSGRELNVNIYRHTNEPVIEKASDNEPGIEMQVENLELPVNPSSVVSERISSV

[5] = biological target: Histamine H1 receptor (Homo sapiens) (UniProt P35367); conditions: Compound concentration 10.0 uM
Chain of Histamine H1 receptor (Homo sapiens) (P35367 whole entry): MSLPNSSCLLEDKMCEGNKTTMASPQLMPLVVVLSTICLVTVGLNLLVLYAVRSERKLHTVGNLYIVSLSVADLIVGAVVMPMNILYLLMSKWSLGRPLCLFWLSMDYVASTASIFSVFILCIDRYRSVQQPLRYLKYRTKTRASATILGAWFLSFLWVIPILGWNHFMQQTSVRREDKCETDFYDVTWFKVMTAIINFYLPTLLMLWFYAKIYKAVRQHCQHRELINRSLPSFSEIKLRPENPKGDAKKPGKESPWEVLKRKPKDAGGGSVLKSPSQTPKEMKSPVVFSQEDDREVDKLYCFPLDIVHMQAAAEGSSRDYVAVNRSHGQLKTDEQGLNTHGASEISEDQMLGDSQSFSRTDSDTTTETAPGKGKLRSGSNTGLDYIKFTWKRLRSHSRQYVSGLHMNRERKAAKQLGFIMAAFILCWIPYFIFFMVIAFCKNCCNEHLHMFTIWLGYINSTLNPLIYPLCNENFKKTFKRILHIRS

[6] = biological target: Ephrin type-A receptor 2 (Homo sapiens) (UniProt P29317); test: EPHA2 SGC Tm panel (DSF); conditions: Compound concentration 20.0 uM
[7] = biological target: Dual specificity mitogen-activated protein kinase kinase 6 (Homo sapiens) (UniProt P52564); test: MAP2K6 SGC Tm panel (DSF); conditions: Compound concentration 20.0 uM
Chain of Dual specificity mitogen-activated protein kinase kinase 6 (Homo sapiens) (P52564 whole entry): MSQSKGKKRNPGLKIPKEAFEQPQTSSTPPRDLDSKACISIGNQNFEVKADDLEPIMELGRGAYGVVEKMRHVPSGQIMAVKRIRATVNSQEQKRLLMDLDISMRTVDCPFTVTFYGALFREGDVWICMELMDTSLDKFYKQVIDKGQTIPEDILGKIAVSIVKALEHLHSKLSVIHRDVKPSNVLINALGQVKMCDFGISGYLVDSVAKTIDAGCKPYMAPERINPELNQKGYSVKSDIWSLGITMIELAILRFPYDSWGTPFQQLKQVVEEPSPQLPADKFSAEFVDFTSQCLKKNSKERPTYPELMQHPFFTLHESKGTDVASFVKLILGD

[8] = biological target: Calcium/calmodulin-dependent protein kinase type II subunit delta (Homo sapiens) (UniProt Q13557); test: CAMK2D SGC Tm panel (DSF); conditions: Compound concentration 20.0 uM
Chain of Calcium/calmodulin-dependent protein kinase type II subunit delta (Homo sapiens) (Q13557 whole entry): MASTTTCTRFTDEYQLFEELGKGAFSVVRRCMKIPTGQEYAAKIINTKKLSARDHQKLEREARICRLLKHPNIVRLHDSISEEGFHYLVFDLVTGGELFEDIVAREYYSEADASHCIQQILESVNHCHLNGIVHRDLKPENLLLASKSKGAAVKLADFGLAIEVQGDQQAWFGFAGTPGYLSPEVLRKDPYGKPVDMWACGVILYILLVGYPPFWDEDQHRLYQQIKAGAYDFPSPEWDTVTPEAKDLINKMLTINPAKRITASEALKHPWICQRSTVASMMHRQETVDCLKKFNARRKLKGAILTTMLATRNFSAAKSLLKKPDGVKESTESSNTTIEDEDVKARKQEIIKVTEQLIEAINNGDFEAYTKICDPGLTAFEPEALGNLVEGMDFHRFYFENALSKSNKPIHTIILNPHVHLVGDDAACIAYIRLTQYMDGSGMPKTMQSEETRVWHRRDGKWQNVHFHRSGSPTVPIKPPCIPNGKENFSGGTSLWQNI

[9] = biological target: Serine/threonine-protein kinase B-raf (Homo sapiens) (UniProt P15056); test: BRAF SGC Tm panel (DSF); conditions: Compound concentration 20.0 uM
[10] = GPCRScan assay: inhibition of GABA/PBR; parameters: species or system Rattus norvegicus; radioligand conc. used [nm] 0.3 – 2.0, parental cells brain tissue
[11] = biological target: T2, Zinc finger and BTB domain-containing protein 44 (Homo sapiens) (UniProt Q8NCP5); conditions: OCI-Ly1, Compound concentration 1.0 uM
T2 sequence (whole entry): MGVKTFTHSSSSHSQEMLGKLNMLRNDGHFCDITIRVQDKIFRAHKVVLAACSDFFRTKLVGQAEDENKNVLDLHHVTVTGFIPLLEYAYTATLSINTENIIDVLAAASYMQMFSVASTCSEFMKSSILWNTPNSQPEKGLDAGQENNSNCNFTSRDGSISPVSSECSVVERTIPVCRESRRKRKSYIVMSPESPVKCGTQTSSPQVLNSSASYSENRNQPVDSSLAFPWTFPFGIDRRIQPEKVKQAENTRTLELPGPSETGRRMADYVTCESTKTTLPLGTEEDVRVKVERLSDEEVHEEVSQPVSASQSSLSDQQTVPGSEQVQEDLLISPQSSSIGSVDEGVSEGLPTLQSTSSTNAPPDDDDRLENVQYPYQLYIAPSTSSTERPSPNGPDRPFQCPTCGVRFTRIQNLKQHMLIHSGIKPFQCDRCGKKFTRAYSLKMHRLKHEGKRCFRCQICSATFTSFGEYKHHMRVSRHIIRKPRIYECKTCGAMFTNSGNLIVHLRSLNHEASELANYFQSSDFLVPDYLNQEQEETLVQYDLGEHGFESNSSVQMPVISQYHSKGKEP

[12] = biological target: STE20/SPS1-related proline-alanine-rich protein kinase (Homo sapiens) (UniProt Q9UEW8); test: STK39 SGC Tm panel (DSF); conditions: Compound concentration 20.0 uM
[13] = biological target: SRSF protein kinase 1 (Homo sapiens) (UniProt Q96SB4); test: SRPK1 SGC Tm panel (DSF); conditions: Compound concentration 20.0 uM
[14] = biological target: Zinc finger and BTB domain-containing protein 21 (Homo sapiens) (UniProt Q9ULJ3); conditions: SUD4, Compound concentration 1.0 uM
[15] = biological target: Zinc finger and BTB domain-containing protein 17 (Homo sapiens) (UniProt Q13105); conditions: SUD4, Compound concentration 1.0 uM
[16] = biological target: Serine/threonine-protein kinase DCLK1 (Homo sapiens) (UniProt O15075); test: DCAMKL1 SGC Tm panel (DSF); conditions: Compound concentration 20.0 uM
[17] = biological target: Serine/threonine-protein kinase 3 (Homo sapiens) (UniProt Q13188); test: STK3 SGC Tm panel (DSF); conditions: Compound concentration 20.0 uM
Chain of Serine/threonine-protein kinase 3 (Homo sapiens) (Q13188 whole entry): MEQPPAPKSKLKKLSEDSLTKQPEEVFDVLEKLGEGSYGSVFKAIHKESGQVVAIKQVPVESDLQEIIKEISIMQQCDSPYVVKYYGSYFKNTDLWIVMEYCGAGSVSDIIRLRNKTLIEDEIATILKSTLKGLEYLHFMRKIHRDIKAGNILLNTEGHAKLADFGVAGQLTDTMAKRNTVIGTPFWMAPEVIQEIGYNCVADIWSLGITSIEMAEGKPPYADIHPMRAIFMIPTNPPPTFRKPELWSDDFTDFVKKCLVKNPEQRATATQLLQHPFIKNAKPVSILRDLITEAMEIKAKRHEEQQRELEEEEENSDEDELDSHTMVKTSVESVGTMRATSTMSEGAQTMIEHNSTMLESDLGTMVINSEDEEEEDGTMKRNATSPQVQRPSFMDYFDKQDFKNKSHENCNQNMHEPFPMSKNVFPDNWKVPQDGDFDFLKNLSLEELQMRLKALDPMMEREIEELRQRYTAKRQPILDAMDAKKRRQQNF

[18] = biological target: Adenosine receptor A2a (Homo sapiens) (UniProt P29274); test: GPCRScan assay: inhibition of A2A; conditions: Compound concentration 10.0 uM
Chain of Adenosine receptor A2a (Homo sapiens) (P29274 whole entry): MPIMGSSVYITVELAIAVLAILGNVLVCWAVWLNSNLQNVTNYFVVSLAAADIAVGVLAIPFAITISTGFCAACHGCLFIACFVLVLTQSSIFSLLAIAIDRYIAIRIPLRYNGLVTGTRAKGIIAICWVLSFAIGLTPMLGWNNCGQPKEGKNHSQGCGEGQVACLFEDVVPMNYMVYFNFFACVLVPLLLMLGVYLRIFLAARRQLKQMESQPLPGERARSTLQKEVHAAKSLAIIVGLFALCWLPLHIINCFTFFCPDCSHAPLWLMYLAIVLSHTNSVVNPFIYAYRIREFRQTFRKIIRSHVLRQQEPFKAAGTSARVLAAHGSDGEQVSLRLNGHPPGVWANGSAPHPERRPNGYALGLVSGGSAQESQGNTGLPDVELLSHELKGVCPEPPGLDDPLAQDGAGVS

[19] = biological target: Bone morphogenetic protein receptor type-2 (Homo sapiens) (UniProt Q13873); test: BMPR2 SGC Tm panel (DSF); conditions: Compound concentration 20.0 uM
Chain of Bone morphogenetic protein receptor type-2 (Homo sapiens) (Q13873 whole entry): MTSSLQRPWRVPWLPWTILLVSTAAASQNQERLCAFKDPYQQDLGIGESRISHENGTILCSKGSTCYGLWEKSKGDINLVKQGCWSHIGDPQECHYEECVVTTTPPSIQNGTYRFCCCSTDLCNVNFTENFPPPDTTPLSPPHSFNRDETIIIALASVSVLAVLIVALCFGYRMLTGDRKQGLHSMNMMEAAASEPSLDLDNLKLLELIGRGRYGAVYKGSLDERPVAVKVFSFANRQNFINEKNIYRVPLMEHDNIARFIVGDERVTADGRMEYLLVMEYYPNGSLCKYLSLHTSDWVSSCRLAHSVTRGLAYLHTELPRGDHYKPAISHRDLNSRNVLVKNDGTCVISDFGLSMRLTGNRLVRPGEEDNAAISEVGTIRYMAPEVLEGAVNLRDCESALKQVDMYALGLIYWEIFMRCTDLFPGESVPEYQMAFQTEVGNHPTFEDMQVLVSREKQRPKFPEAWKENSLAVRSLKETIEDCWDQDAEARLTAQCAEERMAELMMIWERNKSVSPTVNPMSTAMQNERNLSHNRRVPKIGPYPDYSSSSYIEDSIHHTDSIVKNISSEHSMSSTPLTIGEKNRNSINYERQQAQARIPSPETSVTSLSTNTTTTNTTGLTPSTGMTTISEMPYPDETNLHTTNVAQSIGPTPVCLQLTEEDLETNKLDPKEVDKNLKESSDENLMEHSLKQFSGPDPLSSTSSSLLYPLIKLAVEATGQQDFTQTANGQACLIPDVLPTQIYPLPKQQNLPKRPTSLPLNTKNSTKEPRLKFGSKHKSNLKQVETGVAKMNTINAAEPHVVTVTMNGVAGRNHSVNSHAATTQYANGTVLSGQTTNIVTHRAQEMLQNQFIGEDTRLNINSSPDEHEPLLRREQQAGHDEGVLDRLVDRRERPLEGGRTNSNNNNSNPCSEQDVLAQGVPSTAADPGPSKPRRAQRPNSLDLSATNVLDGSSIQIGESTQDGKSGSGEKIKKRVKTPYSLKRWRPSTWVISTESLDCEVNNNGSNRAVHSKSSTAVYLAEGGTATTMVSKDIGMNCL

[20] = biological target: Mitogen-activated protein kinase 8 (Homo sapiens) (UniProt P45983); test: MAPK8 SGC Tm panel (DSF); conditions: Compound concentration 20.0 uM
Chain of Mitogen-activated protein kinase 8 (Homo sapiens) (P45983 whole entry): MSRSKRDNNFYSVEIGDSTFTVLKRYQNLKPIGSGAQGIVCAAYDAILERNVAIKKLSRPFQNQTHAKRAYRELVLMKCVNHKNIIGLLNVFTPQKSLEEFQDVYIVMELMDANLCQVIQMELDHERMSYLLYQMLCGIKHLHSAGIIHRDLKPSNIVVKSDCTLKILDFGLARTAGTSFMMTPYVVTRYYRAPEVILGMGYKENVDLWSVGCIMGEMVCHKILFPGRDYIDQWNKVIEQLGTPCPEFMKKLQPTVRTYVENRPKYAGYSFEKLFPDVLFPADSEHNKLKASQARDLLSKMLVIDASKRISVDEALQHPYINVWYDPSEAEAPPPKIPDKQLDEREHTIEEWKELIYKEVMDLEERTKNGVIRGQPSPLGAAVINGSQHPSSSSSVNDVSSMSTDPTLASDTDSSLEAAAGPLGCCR

[21] = biological target: Dual specificity protein kinase TTK (Homo sapiens) (UniProt P33981); test: TTK SGC Tm panel (DSF); conditions: Compound concentration 20.0 uM
[22] = biological target: Histamine H2 receptor (Homo sapiens) (UniProt P25021); conditions: Compound concentration 10.0 uM
[23] = biological target: Alpha-1B adrenergic receptor (Homo sapiens) (UniProt P35368); conditions: Compound concentration 10.0 uM
[24] = biological target: Sigma intracellular receptor 2 (Homo sapiens, UniProt Q5BJF2); test: GPCRScan assay: inhibition of Sigma 2; parameters: radioligand conc. used [nm] 5.0, parental cells HEKT
[25] = biological target: Serine/threonine-protein kinase 17B (Homo sapiens) (UniProt O94768); test: STK17B SGC Tm panel (DSF); conditions: Compound concentration 20.0 uM
Chain of Serine/threonine-protein kinase 17B (Homo sapiens) (O94768 whole entry): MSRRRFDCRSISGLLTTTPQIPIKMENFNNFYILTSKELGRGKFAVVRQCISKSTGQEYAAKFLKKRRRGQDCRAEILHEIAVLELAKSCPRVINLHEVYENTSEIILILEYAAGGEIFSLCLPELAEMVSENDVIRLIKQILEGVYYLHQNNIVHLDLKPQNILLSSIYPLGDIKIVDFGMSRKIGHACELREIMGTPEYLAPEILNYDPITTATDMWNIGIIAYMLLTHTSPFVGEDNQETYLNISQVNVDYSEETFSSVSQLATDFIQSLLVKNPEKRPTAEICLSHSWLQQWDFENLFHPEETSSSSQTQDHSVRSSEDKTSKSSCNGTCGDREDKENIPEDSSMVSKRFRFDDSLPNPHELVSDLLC

[26] = biological target: Muscarinic acetylcholine receptor M2 (Homo sapiens) (UniProt P08172); conditions: Compound concentration 10.0 uM
Chain of Muscarinic acetylcholine receptor M2 (Homo sapiens) (P08172 whole entry, the tested form may be a part): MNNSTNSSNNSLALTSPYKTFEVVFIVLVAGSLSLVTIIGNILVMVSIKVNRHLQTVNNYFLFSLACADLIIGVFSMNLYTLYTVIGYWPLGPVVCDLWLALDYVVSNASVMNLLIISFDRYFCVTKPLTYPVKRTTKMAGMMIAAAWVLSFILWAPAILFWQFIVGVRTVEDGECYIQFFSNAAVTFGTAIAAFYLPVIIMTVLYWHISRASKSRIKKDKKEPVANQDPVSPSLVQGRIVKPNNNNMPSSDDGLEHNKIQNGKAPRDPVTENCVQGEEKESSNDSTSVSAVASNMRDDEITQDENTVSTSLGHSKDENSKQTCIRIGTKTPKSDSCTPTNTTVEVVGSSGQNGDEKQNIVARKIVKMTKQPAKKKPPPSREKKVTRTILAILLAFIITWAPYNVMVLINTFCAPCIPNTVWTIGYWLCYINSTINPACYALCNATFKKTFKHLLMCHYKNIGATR

[27] = biological target: Zinc finger and BTB domain-containing protein 7A (Homo sapiens) (UniProt O95365); conditions: SUD4, Compound concentration 1.0 uM
[28] = biological target: Bromodomain-containing protein 4 (Homo sapiens) (UniProt O60885); test: BRD4 SGC Tm panel (DSF); conditions: Compound concentration 20.0 uM

LogFC [1]: -0.0964
Tm [2]: 46 °C
Tm [3]: 35 °C
inhibition [4]: 16.1%
inhibition [5]: 10.3%
Tm [6]: 46 °C
Tm [7]: 45 °C
Tm [8]: 47 °C
Tm [9]: 39 °C
Ki [10]: 1110 nM
pKi [10]: 6.01
LogFC [11]: 0.423
Tm [12]: 37 °C
Tm [13]: 45 °C
LogFC [14]: 0.0189
LogFC [15]: -0.0472
Tm [16]: 42 °C
Tm [17]: 47 °C
inhibition [18]: -3.49%
Tm [19]: 51 °C
Tm [20]: 43 °C
Tm [21]: 46 °C
inhibition [22]: 43.7%
inhibition [23]: 12.4%
Ki [24]: 2500 nM
Tm [25]: 43 °C
inhibition [26]: 0.77%
LogFC [27]: 0.0336
Tm [28]: 44 °C
Compound: C[C@@H]1CN(c2ncc(Cl)c(Nc3ccc4c(c3)n(CCC(C)(C)O)c(=O)n4C)n2)C[C@H](C)C1(F)F

Source: ChEMBL document CHEMBL5058646 (2022)
